Legend:
Experiment in all cases: Test J Compounds 2 and 6 alone and in combination with other herbicides, foliage spray
Conditions in all cases: applied alone
blackgrass (ALOMY) = format: in vivo, Alopecurus myosuroides; design: key: 0 = no effect, 100 = complete control
Excerpt: (§1) Colby's Equation was used to calculate the expected additive herbicidal effect of the mixtures of Compound 6 with Harmony® Extra (i.e. a 2:1 mixture by weight of thifensulfuron-methyl and tribenuron-methyl). Colby's Equation (Colby, S. R. “Calculating Synergistic and Antagonistic Responses of Herbicide Combinations,” Weeds, 15(1), pp 20-22 (1967)) calculates the expected additive effect of herbicidal mixtures, and for two active ingredients is of the form: Pa+b=Pa+Pb−(PaPb/100) wherein • Pa+b is the percentage effect of the mixture expected from additive contribution of the individual components, • Pa is the observed percentage effect of the first active ingredient at the same use rate as in the mixture, and • Pb is the observed percentage effect of the second active ingredient at the same use rate as in the mixture.
(§2) Seeds of test plants consisting of barnyardgrass (ECHCG; Echinochloa crus-galli (L.) Beauv.), blackgrass (ALOMY; Alopecurus myosuroides Huds.), Surinam grass (BRADC; Urochloa decumbens (Staph) R. D. Webster, previously named Brachiaria decumbens Stapf), cocklebur (XANST, Xanthium strumarium L.), corn (ZEAMD, Zea mays L. cv. ‘Pioneer 33G26’), large crabgrass (DIGSA, Digitaria sanguinalis (L.) Scop.), giant foxtail (SETFA, Setaria faberi Herrm.), lambsquarters (CHEAL, Chenopodium album L.), morningglory (IPOCO, Ipomoea coccinea L.), pigweed (AMARE, Amaranthus retroflexus L.), velvetleaf (ABUTH, Abutilon theophrasti Medik.) wheat (TRZAS, Triticum aestivum L. cv. ‘Recital’) and wild oat (AVEFA, Avena fatua L.) were planted in Redi-Earth® planting medium (Scotts Company, 14111 Scottslawn Road, Marysville, Ohio 43041) comprising spaghnum peat moss and vermiculite. Seeds of small-seeded species were planted about 1 cm deep; larger seeds were planted about 2.5 cm deep. Plants were grown in a greenhouse using supplemental lighting to maintain a photoperiod of about 14 hours; daytime and nighttime temperatures were about 24-30° C. and 22-25° C., respectively. Balanced fertilizer was applied through the watering system. The plants were grown for 7 to 11 days so that at time of treatment the plants ranged in height from 2 to 18 cm (1- to 4-leaf stage). Treatments consisted of Compounds 2 and 6 (technical material), atrazine (90DF), terbacil (Sinbar® 80DF), hexazinone (Velpar® 75WG), diuron (Karmex® 80WP) and paraquat (Gramoxone® Extra, 37%) alone and in combination, suspended or dissolved in an aqueous solvent comprising a nonionic surfactant and applied as a foliage spray using a volume of 541 L/ha. Each treatment was triply replicated. […] Treated plants and controls were maintained in the greenhouse and watered as needed with care to not wet the foliage for the first 24 hours after treatment. The effects on the plants 15 days after treatment were visually compared to untreated controls. Plant response ratings, listed in Table J as the means of the thee replicates, are based on a scale of 0 to 100 where 0 is no effect and 100 is complete control. Also listed in Table J are the expected effects for the mixtures calculated using Colby's Equation.

giant foxtail (SETFA) = format: in vivo, Setaria faberi; design: key: 0 = no effect, 100 = complete control
Excerpt: as §2

large crabgrass (DIGSA) = format: in vivo, Digitaria sanguinalis; design: key to DIGSA Obsd.: 0 = no effect, 100 = complete control
Excerpt: as §1, §2

cocklebur (XANST) = format: in vivo, Xanthium strumarium; design: key: 0 = no effect, 100 = complete control
Excerpt: as §2

corn (ZEAMD) = format: in vivo, Zea mays; design: key: percentage herbicidal effect (observed)
Excerpt: as §1, §2

pigweed (AMARE) = format: in vivo, Amaranthus retroflexus; design: key: 0 = no effect, 100 = complete control
Excerpt: as §1, §2

morningglory (IPOCO) = format: in vivo, Ipomoea coccinea; design: key: 0 = no effect, 100 = complete control
Excerpt: as §2

lambsquarters (CHEAL) = format: in vivo, Chenopodium album; design: key: % herbicidal effect (observed)
Excerpt: as §1, §2

wheat (TRZAS) = format: in vivo, Triticum aestivum; design: key: 0 = no effect, 100 = complete control
Excerpt: as §1, §2

wild oat (AVEFA) = format: in vivo, Avena fatua; design: key: 0 = no effect, 100 = complete control
Excerpt: as §1, §2

velvetleaf (ABUTH) = format: in vivo, Abutilon theophrasti; design: key: 0 = no effect, 100 = complete control
Excerpt: as §1, §2

barnyardgrass (ECHCG) = format: in vivo, Echinochloa crus-galli; design: key: percentage herbicidal effect (observed)
Excerpt: as §1, §2

Surinam grass (BRADC) = format: in vivo, Urochloa decumbens; design: key: 0 = no effect, 100 = complete control
Excerpt: as §1, §2

For `CN(C)c1nc(=O)n(C2CCCCC2)c(=O)n1C` [hexazinone], the “ALOMY Obsd.” value (blackgrass (ALOMY); 100 g a.i./ha) was 40, the “ALOMY Obsd.” value (blackgrass (ALOMY); 200 g a.i./ha) was 78 and the “SETFA Obsd.” value (giant foxtail (SETFA); 100 g a.i./ha) was 28. The “SETFA Obsd.” value (giant foxtail (SETFA); 200 g a.i./ha) was 45, the “DIGSA Obsd.” value (large crabgrass (DIGSA); 100 g a.i./ha) was 38 and the “DIGSA Obsd.” value (large crabgrass (DIGSA); 200 g a.i./ha) was 53. The “XANST Obsd.” value (cocklebur (XANST); 100 g a.i./ha) was 100, the “XANST Obsd.” value (cocklebur (XANST); 200 g a.i./ha) was 100 and the “ZEAMD Obsd.” value (corn (ZEAMD); 100 g a.i./ha) was 45. For the same compound, the “ZEAMD Obsd.” value (corn (ZEAMD); 200 g a.i./ha) was 53, the “AMARE Obsd.” value (pigweed (AMARE); 100 g a.i./ha) was 88 and the “AMARE Obsd.” value (pigweed (AMARE); 200 g a.i./ha) was 80. For the same compound, the “IPOCO Obsd.” value (morningglory (IPOCO); 100 g a.i./ha) was 92, the “IPOCO Obsd.” value (morningglory (IPOCO); 200 g a.i./ha) was 100 and the “CHEAL Obsd.” value (lambsquarters (CHEAL); 100 g a.i./ha) was 78. For the same compound, the “CHEAL Obsd.” value (lambsquarters (CHEAL); 200 g a.i./ha) was 87, the “TRZAS Obsd.” value (wheat (TRZAS); 100 g a.i./ha) was 35 and the “TRZAS Obsd.” value (wheat (TRZAS); 200 g a.i./ha) was 60. For the same compound, the “AVEFA Obsd.” value (wild oat (AVEFA); 100 g a.i./ha) was 53, the “AVEFA Obsd.” value (wild oat (AVEFA); 200 g a.i./ha) was 62 and the “ABUTH Obsd.” value (velvetleaf (ABUTH); 100 g a.i./ha) was 82. The “ABUTH Obsd.” value (velvetleaf (ABUTH); 200 g a.i./ha) was 77, the “ECHCG Obsd.” value (barnyardgrass (ECHCG); 100 g a.i./ha) was 15 and the “ECHCG Obsd.” value (barnyardgrass (ECHCG); 200 g a.i./ha) was 53. For the same compound, the “BRADC Obsd.” value (Surinam grass (BRADC); 100 g a.i./ha) was 62 and the “BRADC Obsd.” value (Surinam grass (BRADC); 200 g a.i./ha) was 70.
In the case of `C[n+]1ccc(-c2cc[n+](C)cc2)cc1` [paraquat], the “ALOMY Obsd.” value (blackgrass (ALOMY); 31 g a.i./ha) is reported as 60, the “ALOMY Obsd.” value (blackgrass (ALOMY); 62 g a.i./ha) is reported as 73 and the “SETFA Obsd.” value (giant foxtail (SETFA); 31 g a.i./ha) is reported as 72. For the same compound, the “SETFA Obsd.” value (giant foxtail (SETFA); 62 g a.i./ha) was 88, the “DIGSA Obsd.” value (large crabgrass (DIGSA); 31 g a.i./ha) was 78 and the “DIGSA Obsd.” value (large crabgrass (DIGSA); 62 g a.i./ha) was 85. The “XANST Obsd.” value (cocklebur (XANST); 31 g a.i./ha) was 100, the “XANST Obsd.” value (cocklebur (XANST); 62 g a.i./ha) was 87 and the “ZEAMD Obsd.” value (corn (ZEAMD); 31 g a.i./ha) was 43. The “ZEAMD Obsd.” value (corn (ZEAMD); 62 g a.i./ha) was 63, the “AMARE Obsd.” value (pigweed (AMARE); 31 g a.i./ha) was 90 and the “AMARE Obsd.” value (pigweed (AMARE); 62 g a.i./ha) was 100. For the same compound, the “IPOCO Obsd.” value (morningglory (IPOCO); 31 g a.i./ha) was 58, the “IPOCO Obsd.” value (morningglory (IPOCO); 62 g a.i./ha) was 90 and the “CHEAL Obsd.” value (lambsquarters (CHEAL); 31 g a.i./ha) was 95. For the same compound, the “CHEAL Obsd.” value (lambsquarters (CHEAL); 62 g a.i./ha) was 100, the “TRZAS Obsd.” value (wheat (TRZAS); 31 g a.i./ha) was 35 and the “TRZAS Obsd.” value (wheat (TRZAS); 62 g a.i./ha) was 83. The “AVEFA Obsd.” value (wild oat (AVEFA); 31 g a.i./ha) was 42, the “AVEFA Obsd.” value (wild oat (AVEFA); 62 g a.i./ha) was 63 and the “ABUTH Obsd.” value (velvetleaf (ABUTH); 31 g a.i./ha) was 70. For the same compound, the “ABUTH Obsd.” value (velvetleaf (ABUTH); 62 g a.i./ha) was 92, the “ECHCG Obsd.” value (barnyardgrass (ECHCG); 31 g a.i./ha) was 45 and the “ECHCG Obsd.” value (barnyardgrass (ECHCG); 62 g a.i./ha) was 77. The “BRADC Obsd.” value (Surinam grass (BRADC); 31 g a.i./ha) was 67 and the “BRADC Obsd.” value (Surinam grass (BRADC); 62 g a.i./ha) was 95.
With `Cc1[nH]c(=O)n(C(C)(C)C)c(=O)c1Cl` [terbacil] the “ALOMY Obsd.” value (blackgrass (ALOMY); 250 g a.i./ha) was 62, the “ALOMY Obsd.” value (blackgrass (ALOMY); 500 g a.i./ha) was 97 and the “SETFA Obsd.” value (giant foxtail (SETFA); 250 g a.i./ha) was 18. For the same compound, the “SETFA Obsd.” value (giant foxtail (SETFA); 500 g a.i./ha) was 55, the “DIGSA Obsd.” value (large crabgrass (DIGSA); 250 g a.i./ha) was 45 and the “DIGSA Obsd.” value (large crabgrass (DIGSA); 500 g a.i./ha) was 48. For the same compound, the “XANST Obsd.” value (cocklebur (XANST); 250 g a.i./ha) was 68, the “XANST Obsd.” value (cocklebur (XANST); 500 g a.i./ha) was 97 and the “ZEAMD Obsd.” value (corn (ZEAMD); 250 g a.i./ha) was 30. The “ZEAMD Obsd.” value (corn (ZEAMD); 500 g a.i./ha) was 75, the “AMARE Obsd.” value (pigweed (AMARE); 250 g a.i./ha) was 63 and the “AMARE Obsd.” value (pigweed (AMARE); 500 g a.i./ha) was 97. The “IPOCO Obsd.” value (morningglory (IPOCO); 250 g a.i./ha) was 78, the “IPOCO Obsd.” value (morningglory (IPOCO); 500 g a.i./ha) was 100 and the “CHEAL Obsd.” value (lambsquarters (CHEAL); 250 g a.i./ha) was 93. The “CHEAL Obsd.” value (lambsquarters (CHEAL); 500 g a.i./ha) was 100, the “TRZAS Obsd.” value (wheat (TRZAS); 250 g a.i./ha) was 55 and the “TRZAS Obsd.” value (wheat (TRZAS); 500 g a.i./ha) was 90. The “AVEFA Obsd.” value (wild oat (AVEFA); 250 g a.i./ha) was 68, the “AVEFA Obsd.” value (wild oat (AVEFA); 500 g a.i./ha) was 97 and the “ABUTH Obsd.” value (velvetleaf (ABUTH); 250 g a.i./ha) was 92. The “ABUTH Obsd.” value (velvetleaf (ABUTH); 500 g a.i./ha) was 100, the “ECHCG Obsd.” value (barnyardgrass (ECHCG); 250 g a.i./ha) was 15 and the “ECHCG Obsd.” value (barnyardgrass (ECHCG); 500 g a.i./ha) was 63. The “BRADC Obsd.” value (Surinam grass (BRADC); 250 g a.i./ha) was 75 and the “BRADC Obsd.” value (Surinam grass (BRADC); 500 g a.i./ha) was 73.
